Experimental data as given in EP0267996A1, “New nucleotide derivatives” (TAMIR BIOTECHNOLOGY LTD., priority 1986, dated 1988).

Tests used:
Format in all cases: binding
Conditions in all cases: for Cross-reaction (%): RIA, 100x/y, masses of testosterone and heterologous compound giving 50% inhibition of binding of the tritiated ligand
[1] = test system: monoclonal antibody to testosterone, clone D11 (rat spleen x mouse myeloma NSO/1 hybridoma; heavy chain class Y2a); experiment: Dextran-coated charcoal radioimmunoassay (RIA): affinity and specificity of antibody in ascitic fluid
Procedure: (§1) Characterization of antibodies: A dextran-coated charcoal radioimmunoassay method was used to detect specific antibodies to testosterone. Antibody titer denotes the dilution at which 50% of the labelled ligand, added at concentrations of 50 pg./ml., is bound as determined by radioimmunoassay. Cross reactivity (%) was calculated as proposed by Thorneycroft et al ("Immunologic Methods", Steroid Determination, Peron and Caldwell, eds., Appleton-Century-Crofts, New York 1970, pp. 63-86). as 100x/y where x is the mass of testosterone and y is the mass of heterologous compound required to produce 50% inhibition of the binding of the tritiated ligand. Affinity of the antibodies was calculated according to Abraham et al in Handbook of Radioimmunoassay, Marcel Dekker Inc., New York, 1977, pp. 591-656.
(§2) After two weeks of growth, antibody-secreting hybridomas were detected by a RIA procedure in the tissue culture media of 30 out of the 147 cultures. During subsequent cell culture, 3 hybridoma lines that yielded high antibody titers were cloned by limiting dilutions and sub-cloned on semi-solid agar. When injected i.p. into pristane-trea ted irradiated F₁ mice or nude mice, the hybridomas grew as tumors and secreted high amounts of anti-testosterone antibodies into the ascitic fluid of these mice, with titers ranging from 1:10,000 to 1:60,000 (Table 1).
(§3) Characterization of monoclonal antibodies: The ascitic fluid of mice derived from three hybridomas. H₆, F₂ and D₁₁ was further characterized for affinity and specificity by a dextran-coated RIA procedure.

[2] = test system: monoclonal antibody to testosterone, clone H6 (rat spleen x mouse myeloma NSO/1 hybridoma; heavy chain class Y2a); experiment: as above
Procedure: as §1, §2, §3

[3] = test system: monoclonal antibody to testosterone, clone F2 (rat spleen x mouse myeloma NSO/1 hybridoma; heavy chain class IgM); experiment: as above
Procedure: as §1, §2, §3

[4] = test system: Polyclonal Rat IgG to testosterone (from the rats used for the fusion experiments); experiment: Dextran-coated charcoal radioimmunoassay (RIA): affinity and specificity of antibody
Procedure: Immunization: Wistar-derived female rats (2 to 3 months old) from the Departmental Colon y were immunized by an intradermal injection of testosterone-3-(O-carboxymethyl)-oxime bovine serum albumin conjugate (200 ug/rat) incorporated in complete Freund's adjuvant. A month later the injection was repeated, and booster injections (100 ug/rat) were given three weeks later. All animals were bled from the tail ten days after the booster injection, and the antisera were tested then for titer and specificity.
as §1

[5] = calculated according to the method of Abraham et al

SMILES	Cross-reaction (%) [1]	Cross-reaction (%) [2]	Cross-reaction (%) [3]	Cross-reaction (%) [4]	Ka [1, 5]	Ka [2, 5]	Ka [3, 5]	Ka [4, 5]
C[C@]12CCC(=O)C[C@@H]1CC[C@@H]1[C@@H]2CC[C@]2(C)[C@@H](O)CC[C@@H]12 [5-alpha-Dihydrotestosterone]	100%	100%	2%	10%	–	–	–	–
C[C@]12CCC(=O)C[C@H]1CC[C@@H]1[C@@H]2CC[C@]2(C)[C@@H](O)CC[C@@H]12 [5-beta-Dihydrotestosterone]	8.5%	0.5%	15%	2%	–	–	–	–
C[C@]12CC[C@H]3[C@@H](CCC4=CC(=O)CC[C@@]43C)[C@@H]1CC[C@@H]2O [Testosterone]	100%	100%	100%	100%	1.85e+10 L/mol	2.1e+10 L/mol	1e+10 L/mol	3.7e+09 L/mol
